Experimental data reported in patent US20250353873A1, “COMPOUNDS AND METHODS FOR MODULATING APOE EXPRESSION” (Ionis Pharmaceuticals, Inc., priority 2024, published 2025).
Where “and” joins values, the source holds several entries; their conditions need not be identical. Identical values can stand only once. Strand notation (5' to 3'): a small letter for the sugar, then the base; units joined by * are phosphorothioate-linked, units joined directly phosphodiester-linked; [ ] holds rarer units or linkages, { } end groups; capitals alone tell only the bases. [ms] = mesyl phosphoramidate linkage; e = 2'-O-(2-methoxyethyl) (MOE); k = constrained ethyl (cEt); [5mC] = 5-methylcytosine; d = 2'-deoxy (DNA)

Assays:
[1] = tested on: human APOE RNA; assay: Activity in APOE C57BL/6NTac-Apoeem7250 knock-in mice, single ICV bolus, 4 weeks (Example 10); format: in vivo; conditions: single ICV bolus 300 μg, 4 weeks post treatment, normalized to mouse Ppia
Method in brief: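 Knock-in mice (2–4 per group) received one 300 μg ICV bolus of oligonucleotide or PBS. After four weeks, human APOE RNA in cortex and spinal cord measured by RT-qPCR (primer probe set RTS3073), normalized to mouse Ppia, expressed as % of PBS controls.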

[2] = tested on: human APOE RNA; assay: Activity in APOE C57BL/6NTac-Apoeem7250 knock-in mice, single ICV bolus, 20 weeks (Example 13); format: in vivo; conditions: single ICV bolus 300 μg, 20 weeks post treatment, normalized to mouse Ppia
Description: Modified oligonucleotides described above were tested in the APOE C57BL/6NTac-Apoeem7250 knock-in mouse model described above.
APOE C57BL/6NTac-Apoeem7250 knock-in mice were divided into groups of 4 mice each. Each mouse received a single ICV bolus of 300 μg of modified oligonucleotide. A group of 2-4 mice received a single ICV bolus with PBS as a negative control.
Twenty weeks post treatment, mice were sacrificed and RNA was extracted from cortical brain tissue and spinal cord for quantitative real-time RT-PCR analysis of RNA expression of APOE using human primer probe set RTS3073 (described herein above). APOE RNA levels were normalized to mouse Ppia. Mouse Ppia was amplified using primer probe set m_cyclo24 (described herein above). Results are presented as percent human APOE RNA relative to the amount of human APOE RNA in PBS treated animals, (% control). Each experiment is identified in separate tables below.

[3] = tested on: human APOE RNA; assay: Activity in APOE C57BL/6NTac-Apoeem7250 knock-in mice, single ICV bolus, 8 weeks (Example 11); format: in vivo; conditions: single ICV bolus 300 μg, 8 weeks post treatment, normalized to mouse Ppia
Method in brief: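 Human APOE knock-in C57BL/6NTac mice given one ICV bolus of 300 μg oligonucleotide; PBS-dosed group as control. At 8 weeks, cortex and spinal cord RNA measured by qRT-PCR (human probe RTS3073), normalized to mouse Ppia, expressed as % of PBS control.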

[4] = tested on: human APOE RNA; assay: Activity in APOE C57BL/6NTac-Apoeem7250 knock-in mice, single ICV bolus, 16 weeks (Example 12); format: in vivo; conditions: cortex; single ICV bolus 300 μg; 16 weeks post treatment; normalized to mouse Ppia
Method in brief: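 Knock-in mice (3-4 per group) received one ICV bolus of 300 μg oligonucleotide, PBS as control. After 16 weeks, human APOE RNA in cortex and spinal cord measured by RT-qPCR, normalized to mouse Ppia, and reported as % of PBS control.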

[5] = tested on: human APOE RNA; assay: Dose-dependent inhibition of human APOE RNA in HepG2 cells, electroporation, 50,000 cells per well, RT-PCR normalized to GAPDH (Example 4, Tables 8-10); format: cell-based; conditions: HepG2, electroporation, 16-hour treatment
Method in brief: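 HepG2 cells, 50,000 per well, electroporated with modified oligonucleotide at various concentrations. APOE RNA quantified by RT-PCR with human primer probe set RTS3073, normalized to GAPDH. Values are percent APOE RNA relative to untreated control cells.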

Row | Substance | APOE RNA (% control) Cortex [1] [% control] | APOE RNA (% control) Spinal Cord [1] [% control] | APOE RNA (% control) Cortex [2] [% control] | APOE RNA (% control) Spinal Cord [2] [% control] | also measured
1 | 1779961 (e[5mC]*eTeT*kG[ms]kG*eT*dG[ms]dA[ms]dA[ms]dT*d[5mC]*dT*dT*dT*dA[ms]dT*eT*eA*eA*eA; antisense) [Compound 1779961] | 39 | 53 | 59 | 26 | –
2 | 1778110: 6-10-4 MOE gapmer ACTTGGTGAATCTTTATTAA, linkages soooosszzsssssszoss (eA*e[5mC]eTeTeGeG*dT*dG[ms]dA[ms]dA*dT*d[5mC]*dT*dT*dT*dA[ms]eTeT*eA*eA) [compound 1778110] | 51 | 51 | 81 | 35 | –
3 | 1778109: 6-10-4 MOE gapmer ACTTGGTGAATCTTTATTAA, linkages sooossszzsssssszoss (eA*e[5mC]eTeTeG*eG*dT*dG[ms]dA[ms]dA*dT*d[5mC]*dT*dT*dT*dA[ms]eTeT*eA*eA) [compound 1778109] | 59 | 61 | 81 | 34 | –
4 | 1778107: 6-10-4 MOE gapmer ACTTGGTGAATCTTTATTAA, linkages sooossszzsssssszsss (eA*e[5mC]eTeTeG*eG*dT*dG[ms]dA[ms]dA*dT*d[5mC]*dT*dT*dT*dA[ms]eT*eT*eA*eA) [compound 1778107] | 70 | 70 | 76 | 32 | –
5 | 1785588 (k[5mC]*kT*kT*dG[ms]dG[ms]dT[ms]dG*dA*dA[ms]dT[ms]d[5mC]*dT*dT*dT*dA*dT*kT*kA*dA[ms]kA; antisense) [Compound 1785588] | 30 | 29 | 40 | 18 | –
6 | 1779706 (e[5mC]*eTeTkGkG*dT[ms]dG[ms]dA[ms]dA*dT*d[5mC]*dT*dT*dT*dA*dT*eT*eA*eA*eA; antisense) [Compound 1779706] | 35 | 53 | 46 | 36 | –
7 | 1785589 (k[5mC]*kT*kT*dG[ms]dG[ms]dT[ms]dG*dA*dA*dT[ms]d[5mC][ms]dT*dT*dT*dA*dT*kT*kA*dA[ms]kA; antisense) [Compound 1785589] | 32 | 40 | 49 | 30 | –
8 | 1778122 (eA*e[5mC]eTeTeG*eG*dT*dG[ms]dA[ms]dA*dT*d[5mC]*dT*dT*dT*dA[ms]kT*kT*eA*eA; antisense) [Compound 1778122] | 53 | 62 | 76 | 34 | –
9 | 1693144: 6-10-4 MOE gapmer ACTTGGTGAATCTTTATTAA, linkages soosssszzzssssszsss (eA*e[5mC]eTeT*eG*eG*dT*dG[ms]dA[ms]dA[ms]dT*d[5mC]*dT*dT*dT*dA[ms]eT*eT*eA*eA) [compound 1693144] | – | – | 65 | 71 | APOE RNA (% control) Cortex ([3]; cortex): 67 % control; APOE RNA (% control) Spinal Cord ([3]; spinal cord): 43 % control; APOE RNA (% control) Cortex [4]: 113 % control and 61 % control
10 | 1757573 (eA*e[5mC]eTeT*eG*eG*dT*dG[ms]dA[ms]dA[ms]dT*d[5mC]*dT*dT*dT*dA[ms]kT*eT*eA*eA; antisense) [Compound 1757573] | 53 | 38 | 61 | 42 | –
11 | 1779699 (e[5mC]*eTeT*kG*kG*eT*dG[ms]dA[ms]dA[ms]dT*d[5mC]*dT*dT*dT*dA[ms]dT*eT*eA*eA*eA; antisense) [Compound 1779699] | 44 | 54 | 53 | 25 | –
12 | 1778108 (eA*e[5mC]eTeTeG*kG*dT*dG[ms]dA[ms]dA*dT*d[5mC]*dT*dT*dT*dA[ms]eT*eT*eA*eA; antisense) [Compound 1778108] | 60 | 41 | 70 | 21 | –
13 | 1785591 (k[5mC]*kT*kT*dG[ms]dG[ms]dT[ms]dG*dA*dA*dT*d[5mC]*dT[ms]dT[ms]dT*dA*dT*kT*kA*dA[ms]kA; antisense) [Compound 1785591] | 37 | 39 | 51 | 42 | –
14 | 1757570 (eA*e[5mC]eTeTkG*dG*dT*dG*dA*dA*dT*d[5mC]*dT*dT*dT*kAkTeT*eA*eA; antisense) [Compound 1757570] | – | – | 64 | 48 | APOE RNA (% UTC) ([5]; 5 nM): 154 % UTC; APOE RNA (% UTC) ([5]; 82 nM): 151 % UTC; APOE RNA (% UTC) ([5]; 205 nM): 62 % UTC; APOE RNA (% UTC) ([5]; 512 nM): 26 % UTC; APOE RNA (% UTC) ([5]; 1,280 nM): 42 % UTC; APOE RNA (% UTC) ([5]; 3,200 nM): 22 % UTC; APOE RNA (% UTC) ([5]; 8,000 nM): 18 % UTC; APOE RNA (% UTC) ([5]; 20,000 nM): 18 % UTC; IC50 [5]: 580 nM
15 | 1757585 (eT*eTeGkGkT*dG*dA*dA*dT*d[5mC]*dT*dT*dT*dA*dT*kTeAeA*eA*e[5mC]; antisense) [Compound 1757585] | – | – | 62 | 61 | APOE RNA (% UTC) ([5]; 5 nM): 45 % UTC; APOE RNA (% UTC) ([5]; 13 nM): 49 % UTC; APOE RNA (% UTC) ([5]; 33 nM): 44 % UTC; APOE RNA (% UTC) ([5]; 82 nM): 38 % UTC; APOE RNA (% UTC) ([5]; 205 nM): 33 % UTC; APOE RNA (% UTC) ([5]; 512 nM): 53 % UTC; APOE RNA (% UTC) ([5]; 1,280 nM): 19 % UTC; APOE RNA (% UTC) ([5]; 3,200 nM): 32 % UTC; APOE RNA (% UTC) ([5]; 8,000 nM): 12 % UTC; APOE RNA (% UTC) ([5]; 20,000 nM): 1 % UTC; IC50 [5]: 10 nM
